Assays:
[1] = molar heat capacity at constant pressure; xn = mol fraction of the nth substance listed; details: 101 kPa, Liquid, DSC
[2] = xn = mol fraction of the nth substance listed; details: 101 kPa, Liquid; for viscosity: Falling or rolling sphere viscometry; for speed of sound: Sing-around technique in a fixed-path interferometer; for mass density: Vibrating tube method

CC12CCC(CC1)C(C)(C)O2 [1,3,3-trimethyl-2-oxabicyclo[2.2.2]octane] + CCCCCCCCCC
Details	mass density, [2] [kg/m3]	molar heat capacity at constant pressure, [1] [J/K/mol]	speed of sound, [2] [m/s]	viscosity, [2] [mPa·s]
278.15 K, x1 = 0.1066	758.86	299.16	1315.5	1.29
278.15 K, x1 = 0.2007	775.04	293.5	1316.6	1.39
278.15 K, x1 = 0.2965	792.05	287.99	1318.2	1.5
278.15 K, x1 = 0.4063	812.26	282.04	1321.2	1.66
278.15 K, x1 = 0.5005	830.26	277.25	1324.7	1.82
278.15 K, x1 = 0.5959	849.15	272.59	1329	2.05
278.15 K, x1 = 0.7007	870.67	267.96	1335	2.39
278.15 K, x1 = 0.7989	891.66	263.81	1341.8	2.86
278.15 K, x1 = 0.8956	913.12	259.87	1349.5	3.41
278.15 K, x1 = 1	937.25	256.14	1359.6	4.21
298.15 K, x1 = 0.1066	743.66	308.32	1235.6	0.93
298.15 K, x1 = 0.2007	759.71	303.12	1237	1
298.15 K, x1 = 0.2965	776.57	298.17	1239.1	1.07
298.15 K, x1 = 0.4063	796.58	292.62	1242.3	1.16
298.15 K, x1 = 0.5005	814.39	288.12	1245.7	1.26
298.15 K, x1 = 0.5959	833.07	283.78	1250	1.41
298.15 K, x1 = 0.7007	854.34	279.2	1255.6	1.61
298.15 K, x1 = 0.7989	875.07	275.24	1261.9	1.86
298.15 K, x1 = 0.8956	896.24	271.44	1269.3	2.16
298.15 K, x1 = 1	920.04	267.69	1278.4	2.6
318.15 K, x1 = 0.1066	728.29	318.26	1157.5	0.71
318.15 K, x1 = 0.2007	744.21	313.35	1159.5	0.75
318.15 K, x1 = 0.2965	760.92	308.63	1162	0.81
318.15 K, x1 = 0.4063	780.75	303.32	1165.5	0.87
318.15 K, x1 = 0.5005	798.4	298.96	1169.1	0.93
318.15 K, x1 = 0.5959	816.88	294.7	1173.4	1.02
318.15 K, x1 = 0.7007	837.92	290.19	1179	1.14
318.15 K, x1 = 0.7989	858.42	286.17	1184.9	1.29
318.15 K, x1 = 0.8956	879.33	282.47	1192.3	1.48
318.15 K, x1 = 1	902.84	278.65	1201	1.73
338.15 K, x1 = 0.1066	712.7	328.92	1081.8	0.58
338.15 K, x1 = 0.2007	728.49	324.19	1083.9	0.6
338.15 K, x1 = 0.2965	745.06	319.65	1087.1	0.64
338.15 K, x1 = 0.4063	764.73	314.6	1091.2	0.69
338.15 K, x1 = 0.5005	782.2	310.38	1094.9	0.73
338.15 K, x1 = 0.5959	800.51	306.21	1099.3	0.79
338.15 K, x1 = 0.7007	821.36	301.78	1105.3	0.88
338.15 K, x1 = 0.7989	841.62	297.82	1111.3	0.98
338.15 K, x1 = 0.8956	862.32	294.23	1118.5	1.1
338.15 K, x1 = 1	885.57	290.33	1126.7	1.27

From the NIST ThermoML archive (doi:10.1016/j.fluid.2016.08.035)
